How the values were obtained:
HOP-62 = assay: Growth inhibition of human HOP62 cells assessed as cell growth at 10 uM incubated for 48 hrs by sulforhodamine B assay relative to control; assay type: functional; settings: HOP-62, 48 h, read-out: Activity
MOLT-4 [1] = assay: Growth inhibition of human MOLT4 cells assessed as cell growth at 0.1 uM incubated for 48 hrs by sulforhodamine B assay relative to control; assay type: functional; settings: MOLT-4, 48 h, read-out: Activity
NCI-H322M = assay: Growth inhibition of human NCI-H322M cells assessed as cell growth at 10 uM incubated for 48 hrs by sulforhodamine B assay relative to control; assay type: functional; settings: read-out: Activity
NCI-H460 = assay: Growth inhibition of human NCI-H460 cells assessed as cell growth at 0.01 uM incubated for 48 hrs by sulforhodamine B assay relative to control; assay type: functional; settings: NCI-H460, 48 h, read-out: Activity
OVCAR-5 [2] = assay: Growth inhibition of human OVCAR5 cells assessed as cell growth at 1 uM incubated for 48 hrs by sulforhodamine B assay relative to control; assay type: functional; settings: OVCAR-5, 48 h, read-out: Activity
NCI-H23 [3] = assay: Growth inhibition of human NCI-H23 cells assessed as cell growth at 100 uM incubated for 48 hrs by sulforhodamine B assay relative to control; assay type: functional; settings: NCI-H23, 48 h, read-out: Activity
OVCAR-8 = assay: Growth inhibition of human OVCAR8 cells assessed as cell growth at 10 uM incubated for 48 hrs by sulforhodamine B assay relative to control; assay type: functional; settings: OVCAR-8, 48 h, read-out: Activity
OVCAR-5 [4] = assay: Growth inhibition of human OVCAR5 cells incubated for 48 hrs by sulforhodamine B assay; assay type: functional, cell-based; settings: OVCAR-5, 48 h
MOLT-4 [5] = assay: Growth inhibition of human MOLT4 cells assessed as cell growth at 0.01 uM incubated for 48 hrs by sulforhodamine B assay relative to control; assay type: functional; settings: MOLT-4, 48 h, read-out: Activity
Malme-3M = assay: Growth inhibition of human MALME-3M cells assessed as cell growth at 10 uM incubated for 48 hrs by sulforhodamine B assay relative to control; assay type: functional; settings: read-out: Activity
UACC-257 = assay: Growth inhibition of human UACC257 cells assessed as cell growth at 1 uM incubated for 48 hrs by sulforhodamine B assay relative to control; assay type: functional; settings: UACC-257, 48 h, read-out: Activity
RPMI-8226 = assay: Growth inhibition of human RPMI8226 cells assessed as cell growth at 10 uM incubated for 48 hrs by sulforhodamine B assay relative to control; assay type: functional; settings: RPMI-8226, 48 h, read-out: Activity
KM12 = assay: Growth inhibition of human KM12 cells assessed as cell growth at 10 uM incubated for 48 hrs by sulforhodamine B assay relative to control; assay type: functional; settings: KM12, 48 h, read-out: Activity
NCI-H23 [6] = assay: Growth inhibition of human NCI-H23 cells assessed as cell growth at 10 uM incubated for 48 hrs by sulforhodamine B assay relative to control; assay type: functional; settings: NCI-H23, 48 h, read-out: Activity
NCI/ADR-RES = assay: Growth inhibition of human NCI/ADR-RES cells assessed as cell growth at 10 uM incubated for 48 hrs by sulforhodamine B assay relative to control; assay type: functional; settings: read-out: Activity
UO-31 [7] = assay: Growth inhibition of human UO31 cells assessed as cell growth at 0.1 uM incubated for 48 hrs by sulforhodamine B assay relative to control; assay type: functional; settings: UO-31, 48 h, read-out: Activity
TK-10 = assay: Growth inhibition of human TK10 cells assessed as cell growth at 10 uM incubated for 48 hrs by sulforhodamine B assay relative to control; assay type: functional; settings: TK-10, 48 h, read-out: Activity
OVCAR-3 = assay: Growth inhibition of human OVCAR3 cells assessed as cell growth at 10 uM incubated for 48 hrs by sulforhodamine B assay relative to control; assay type: functional; settings: OVCAR-3, 48 h, read-out: Activity
HCC 2998 = assay: Growth inhibition of human HCC2998 cells assessed as cell growth at 10 uM incubated for 48 hrs by sulforhodamine B assay relative to control; assay type: functional; settings: HCC 2998, 48 h, read-out: Activity
BT-549 = assay: Growth inhibition of human BT549 cells assessed as cell growth at 10 uM incubated for 48 hrs by sulforhodamine B assay relative to control; assay type: functional; settings: BT-549, 48 h, read-out: Activity
IGROV-1 = assay: Growth inhibition of human IGROV1 cells assessed as cell growth at 10 uM incubated for 48 hrs by sulforhodamine B assay relative to control; assay type: functional; settings: IGROV-1, 48 h, read-out: Activity
SNB-19 = assay: Growth inhibition of human SNB19 cells assessed as cell growth at 10 uM incubated for 48 hrs by sulforhodamine B assay relative to control; assay type: functional; settings: SNB-19, 48 h, read-out: Activity
SF-539 = assay: Growth inhibition of human SF539 cells assessed as cell growth at 10 uM incubated for 48 hrs by sulforhodamine B assay relative to control; assay type: functional; settings: SF-539, 48 h, read-out: Activity
MDA-MB-231 = assay: Growth inhibition of human MDA-MB-231 cells assessed as cell growth at 10 uM incubated for 48 hrs by sulforhodamine B assay relative to control; assay type: functional; settings: MDA-MB-231, 48 h, read-out: Activity
M14 = assay: Growth inhibition of human M14 cells assessed as cell growth at 10 uM incubated for 48 hrs by sulforhodamine B assay relative to control; assay type: functional; settings: M14, 48 h, read-out: Activity
UO-31 [8] = assay: Growth inhibition of human UO31 cells incubated for 48 hrs by sulforhodamine B assay; assay type: functional, cell-based; settings: UO-31, 48 h
SF-268 = assay: Growth inhibition of human SF268 cells assessed as cell growth at 100 uM incubated for 48 hrs by sulforhodamine B assay relative to control; assay type: functional; settings: SF-268, 48 h, read-out: Activity
SW-620 = assay: Growth inhibition of human SW620 cells assessed as cell growth at 10 uM incubated for 48 hrs by sulforhodamine B assay relative to control; assay type: functional; settings: SW-620, 48 h, read-out: Activity
RXF 393 = assay: Growth inhibition of human RXF393 cells assessed as cell growth at 10 uM incubated for 48 hrs by sulforhodamine B assay relative to control; assay type: functional; settings: RXF 393, 48 h, read-out: Activity
MCF7 = assay: Growth inhibition of human MCF7 cells assessed as cell growth at 10 uM incubated for 48 hrs by sulforhodamine B assay relative to control; assay type: functional; settings: MCF7, 48 h, read-out: Activity
K562 = assay: Growth inhibition of human K562 cells assessed as cell growth at 10 uM incubated for 48 hrs by sulforhodamine B assay relative to control; assay type: functional; settings: K562, 48 h, read-out: Activity
MDA-MB-468 = assay: Growth inhibition of human MDA-MB-468 cells assessed as cell growth at 10 uM incubated for 48 hrs by sulforhodamine B assay relative to control; assay type: functional; settings: MDA-MB-468, 48 h, read-out: Activity
[9] = read-out: LC50 (the source's name)
[10] = read-out: pLC50 (the source's name) (converted)

SMILES: COc1cc(Cl)cc(-c2nn(-c3cccc(NC(=O)Nc4ccc(Cl)c(C(F)(F)F)c4)c3)cc2-c2ccncc2)c1
- growth at 10 µM (HOP-62): 13.5%
- growth at 0.1 µM (MOLT-4 [1]): 57%
- growth at 10 µM (NCI-H322M): 18.7%
- growth at 0.01 µM (NCI-H460): 100%
- growth at 1 µM (OVCAR-5 [2]): 81%
- growth at 100 µM (NCI-H23 [3]): -50%
- growth at 10 µM (OVCAR-8): 8.71%
- GI50 (OVCAR-5 [4]; read-out: GI50): 2.13 µM
- CC50 (OVCAR-5 [4]; [9]): 3.01 µM
- TGI (OVCAR-5 [4]; read-out: TGI): 71.5 µM
- GI50 (OVCAR-5 [4]; read-out: pGI50 (converted)): 2.14 µM
- CC50 (OVCAR-5 [4]; [10]): 30.2 µM
- TGI (OVCAR-5 [4]; read-out: pTGI (converted)): 28.8 µM
- growth at 0.01 µM (MOLT-4 [5]): 99%
- growth at 10 µM (Malme-3M): -19.8%
- growth at 1 µM (UACC-257): 83%
- growth at 10 µM (RPMI-8226): -29.1%
- growth at 10 µM (KM12): 9.1%
- growth at 10 µM (NCI-H23 [6]): 0.3%
- growth at 10 µM (NCI/ADR-RES): 6.07%
- growth at 0.1 µM (UO-31 [7]): 55%
- growth at 10 µM (TK-10): 37.5%
- growth at 10 µM (OVCAR-3): -22.6%
- growth at 10 µM (HCC 2998): 18.1%
- growth at 10 µM (BT-549): 9.81%
- growth at 10 µM (IGROV-1): 30.2%
- growth at 10 µM (SNB-19): 28.1%
- growth at 10 µM (SF-539): -1.17%
- growth at 10 µM (MDA-MB-231): -30.8%
- growth at 10 µM (M14): 3.99%
- IC50 (UO-31 [8]): 1.66 µM
- GI50 (UO-31 [8]; read-out: GI50): 1.56 µM
- CC50 (UO-31 [8]; [9]): 95.4 µM
- TGI (UO-31 [8]; read-out: TGI): 10.9 µM
- GI50 (UO-31 [8]; read-out: pGI50 (converted)): 1.66 µM
- CC50 (UO-31 [8]; [10]): 97.7 µM
- TGI (UO-31 [8]; read-out: pTGI (converted)): 11 µM
- growth at 100 µM (SF-268): -58%
- growth at 10 µM (SW-620): 12.7%
- growth at 10 µM (RXF 393): -29.9%
- growth at 10 µM (MCF7): 2.57%
- growth at 10 µM (K562): 8.93%
- growth at 10 µM (MDA-MB-468): -14.4%

SMILES: O=C(Nc1cccc(-n2cc(-c3ccncc3)c(-c3cc(O)cc(Cl)c3)n2)c1)Nc1ccc(Cl)c(C(F)(F)F)c1
- growth at 10 µM (HOP-62): 8.99%
- growth at 0.1 µM (MOLT-4 [1]): 92%
- growth at 10 µM (NCI-H322M): 45%
- growth at 0.01 µM (NCI-H460): 101%
- growth at 1 µM (OVCAR-5 [2]): 109%
- growth at 100 µM (NCI-H23 [3]): -55%
- growth at 10 µM (OVCAR-8): 3.69%
- GI50 (OVCAR-5 [4]; read-out: GI50): 3.79 µM
- CC50 (OVCAR-5 [4]; [9]): 54.1 µM
- TGI (OVCAR-5 [4]; read-out: TGI): 13.1 µM
- GI50 (OVCAR-5 [4]; read-out: pGI50 (converted)): 3.8 µM
- CC50 (OVCAR-5 [4]; [10]): 83.2 µM
- TGI (OVCAR-5 [4]; read-out: pTGI (converted)): 13.2 µM
- growth at 0.01 µM (MOLT-4 [5]): 100%
- growth at 10 µM (Malme-3M): -24.9%
- growth at 1 µM (UACC-257): 58%
- growth at 10 µM (RPMI-8226): 13.8%
- growth at 10 µM (KM12): 15.1%
- growth at 10 µM (NCI-H23 [6]): 10.5%
- growth at 10 µM (NCI/ADR-RES): 41.5%
- growth at 0.1 µM (UO-31 [7]): 83%
- growth at 10 µM (TK-10): 25.9%
- growth at 10 µM (OVCAR-3): 1.88%
- growth at 10 µM (HCC 2998): 34.3%
- growth at 10 µM (BT-549): 47.6%
- growth at 10 µM (IGROV-1): 30.6%
- growth at 10 µM (SNB-19): 44.5%
- growth at 10 µM (SF-539): 32.6%
- growth at 10 µM (MDA-MB-231): -47.3%
- growth at 10 µM (M14): -16.8%
- IC50 (UO-31 [8]): 2.1 µM
- GI50 (UO-31 [8]; read-out: GI50): 2.1 µM
- CC50 (UO-31 [8]; [9]): 34.7 µM
- TGI (UO-31 [8]; read-out: TGI): 61.4 µM
- GI50 (UO-31 [8]; read-out: pGI50 (converted)): 2.63 µM
- CC50 (UO-31 [8]; [10]): 34.7 µM
- TGI (UO-31 [8]; read-out: pTGI (converted)): 6.17 µM
- growth at 100 µM (SF-268): -27%
- growth at 10 µM (SW-620): -33.6%
- growth at 10 µM (RXF 393): -49.5%
- growth at 10 µM (MCF7): 13.4%
- growth at 10 µM (K562): 5.24%
- growth at 10 µM (MDA-MB-468): 5.22%

From ChEMBL document CHEMBL4308841, “Synthesis, in vitro antiproliferative activity, and kinase inhibitory effects of pyrazole-containing diarylureas and diarylamides” (Eur J Med Chem, 2018)
